# In BindingDB's records for doi:10.1016/S0960-894X(01)80901-X (1993):
# Molecular target: Neuromedin-K/NK2 receptor (tachykinin receptor 2), Rattus norvegicus
# Assay: Tested in vitro to inhibit the binding of [125I]NKA to its receptor in rat duodenum membrane
smiles,measurement,value
"CC(=O)NC1(c2ccccc2)CCN(CC[C@H](CN(C)C(=O)c2ccccc2)c2ccc(Cl)c(Cl)c2)CC1 [N-[(R)-4-(4-Acetylamino-4-phenyl-piperidin-1-yl)-2-(3,4-dichloro-phenyl)-butyl]-N-methyl-benzamide]",Ki,510 pM
